Patent US20260217735A1, “HETEROCYCLES AND USES THEREOF” (Kumquat Biosciences Inc., priority 2023, published 2026)

How the values were obtained:
KRAS G12D = molecular target: T1, KRAS G12D (Homo sapiens, UniProt P01116, G12D); assay: HTRF assay, KRAS G12D interaction with SOS1; type: biochemical; settings: bins <500 nM / 500 nM to 1000 nM, read-out: Inhibition of KRAS G12D (IC50)
T1 construct: made in house; host or cells: E. coli, e.g. BL21 (DE3)

MiaPaca2 cells = assay: Ras cellular assay, growth of cells with K-Ras G12C mutation; type: cell-based; settings: Homo sapiens, MIA PaCa-2; cell proliferation assay; bins ≤500 nM / >500 nM; read-out: Inhibition of MiaPaca2 Cells (IC50)
Method in brief: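 Anchorage-independent growth: G12C-mutant MIA PaCa-2 plated in soft agar, time-zero plate read the next day when compound was dosed (final DMSO 0.3%). After growth to day 10, MTS-type absorbance at 490/660 nm relative to time zero gave IC50 via four-parameter fitting.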

KRAS G12V = molecular target: T2, KRAS G12V (Homo sapiens, UniProt P01116, G12V); assay: HTRF assay, KRAS G12V interaction with SOS1; type: biochemical; settings: bins <500 nM / 500 nM to 1000 nM, read-out: Inhibition of KRAS G12V (IC50)
T2 construct: made in house; host or cells: E. coli, e.g. BL21 (DE3)
T2 sequence (P01116 1-188 isoform P01116-2 G12V): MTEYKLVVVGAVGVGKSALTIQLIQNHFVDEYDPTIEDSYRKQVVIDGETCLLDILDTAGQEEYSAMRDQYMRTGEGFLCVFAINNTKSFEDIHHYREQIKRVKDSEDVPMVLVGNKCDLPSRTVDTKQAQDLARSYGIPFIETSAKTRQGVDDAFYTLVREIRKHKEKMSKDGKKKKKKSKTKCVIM

KRAS WT = molecular target: T3, KRAS WT (Homo sapiens, UniProt P01116); assay: HTRF assay, wildtype KRAS interaction with SOS1; type: biochemical; settings: bins <500 nM / 500 nM to 1000 nM, read-out: Inhibition of KRAS WT (IC50)
T3 construct: made in house; host or cells: E. coli, e.g. BL21 (DE3)
T3 sequence (P01116 1-188 isoform P01116-2): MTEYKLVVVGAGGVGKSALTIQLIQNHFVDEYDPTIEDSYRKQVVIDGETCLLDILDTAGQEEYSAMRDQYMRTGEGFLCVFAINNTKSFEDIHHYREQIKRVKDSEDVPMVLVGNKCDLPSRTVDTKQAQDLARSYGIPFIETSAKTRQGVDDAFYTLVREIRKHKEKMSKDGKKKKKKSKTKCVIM

KRAS G12S = molecular target: T4, KRAS G12S (Homo sapiens, UniProt P01116, G12S); assay: HTRF assay, KRAS G12S interaction with SOS1; type: biochemical; settings: bins <500 nM / 500 nM to 1000 nM, read-out: Inhibition of KRAS G12S (IC50)
T4 construct: made in house; host or cells: E. coli, e.g. BL21 (DE3)
T4 sequence (P01116 1-188 isoform P01116-2 G12S): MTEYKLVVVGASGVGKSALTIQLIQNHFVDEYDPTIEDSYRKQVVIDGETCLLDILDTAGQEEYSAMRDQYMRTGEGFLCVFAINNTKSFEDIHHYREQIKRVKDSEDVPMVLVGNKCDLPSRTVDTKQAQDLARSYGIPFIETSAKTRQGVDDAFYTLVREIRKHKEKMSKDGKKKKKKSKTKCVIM

T1 sequence (P01116 1-188 isoform P01116-2 G12D): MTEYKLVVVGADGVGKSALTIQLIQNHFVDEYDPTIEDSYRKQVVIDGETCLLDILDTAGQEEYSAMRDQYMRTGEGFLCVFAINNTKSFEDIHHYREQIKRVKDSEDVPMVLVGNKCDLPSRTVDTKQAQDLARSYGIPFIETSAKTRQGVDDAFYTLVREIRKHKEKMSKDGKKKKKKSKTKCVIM

`Cc1c(C#N)ncn1C(=O)N1C[C@]2(CCCCN(c3nc(OC[C@@]45CCCN4C[C@H](F)C5)nc4c(F)c(-c5ccc(F)c6sc(N)c(C#N)c56)c(Cl)cc34)C2)[C@H]1C1(C)CC1` [Compound 111, 1-((1R,4R)-6-(7-(2-amino-3-cyano-7-fluorobenzo[b]thiophen-4-yl)-6-chloro-8-fluoro-2-(((2R,7aS)-2-fluorotetrahydro-1H-pyrrolizin-7a(5H)-yl)methoxy)quinazolin-4-yl)-1-(1-methylcyclopropyl)-2,6-diazaspiro[3.6]decane-2-carbonyl)-5-methyl-1H-imidazole-4-carbonitrile] showed an IC50 (KRAS G12D) of less than 0.5 µM, an IC50 (MiaPaca2 cells) of no more than 0.5 µM and an IC50 (KRAS G12V) of less than 0.5 µM. The IC50 (KRAS WT) was less than 0.5 µM and the IC50 (KRAS G12S) was less than 0.5 µM.
For `Cc1ncn(C(=O)N2C[C@]3(CCCCN(c4nc(OC[C@@]56CCCN5C[C@H](F)C6)nc5c(F)c(-c6ccc(F)c7sc(N)c(C#N)c67)c(Cl)cc45)C3)[C@H]2C2(C)CC2)c1C` [Compound 174, 2-amino-4-(6-chloro-4-((1R,4R)-2-(4,5-dimethyl-1H-imidazole-1-carbonyl)-1-(1-methylcyclopropyl)-2,6-diazaspiro[3.6]decan-6-yl)-8-fluoro-2-(((2R,7aS)-2-fluorotetrahydro-1H-pyrrolizin-7a(5H)-yl)methoxy)quinazolin-7-yl)-7-fluorobenzo[b]thiophene-3-carbonitrile], the IC50 (KRAS G12D) was less than 0.5 µM, the IC50 (MiaPaca2 cells) was no more than 0.5 µM and the IC50 (KRAS G12V) was less than 0.5 µM. The IC50 (KRAS WT) was less than 0.5 µM and the IC50 (KRAS G12S) was less than 0.5 µM.
Compound `C[C@@H]1[C@H](N(C)c2nc(OC[C@@]34CCCN3C[C@H](F)C4)nc3c(F)c(-c4ccc(F)c5sc(N)c(C#N)c45)c(Cl)cc23)CCN1C(=O)n1ccnc1Cl` [Compound 178, 2-amino-4-(6-chloro-4-(((2R,3R)-1-(2-chloro-1H-imidazole-1-carbonyl)-2-methylpyrrolidin-3-yl)(methyl)amino)-8-fluoro-2-(((2R,7aS)-2-fluorotetrahydro-1H-pyrrolizin-7a(5H)-yl)methoxy)quinazolin-7-yl)-7-fluorobenzo[b]thiophene-3-carbonitrile] has an IC50 (KRAS G12D) of less than 0.5 µM, an IC50 (MiaPaca2 cells) of no more than 0.5 µM and an IC50 (KRAS G12V) of less than 0.5 µM. The IC50 (KRAS WT) was less than 0.5 µM and the IC50 (KRAS G12S) was less than 0.5 µM.
`Cc1nccn1C(=O)N1CC2(CCCCN(c3nc(OC[C@@]45CCCN4C[C@H](F)C5)nc4c(F)c(-c5ccc(F)c6sc(N)c(C#N)c56)c(Cl)cc34)C2)C1` [Compound 154, 2-amino-4-(6-chloro-8-fluoro-2-(((2R,7aS)-2-fluorotetrahydro-1H-pyrrolizin-7a(5H)-yl)methoxy)-4-(2-(2-methyl-1H-imidazole-1-carbonyl)-2,6-diazaspiro[3.6]decan-6-yl)quinazolin-7-yl)-7-fluorobenzo[b]thiophene-3-carbonitrile] was tested, and the IC50 (KRAS G12D) was less than 0.5 µM, the IC50 (MiaPaca2 cells) was no more than 0.5 µM and the IC50 (KRAS G12V) was less than 0.5 µM. The IC50 (KRAS WT) was less than 0.5 µM and the IC50 (KRAS G12S) was less than 0.5 µM.
In the case of `CC1C(N(C)c2nc(OC[C@@]34CCCN3C[C@H](F)C4)nc3c(F)c(-c4ccc(F)c5sc(N)c(C#N)c45)c(Cl)cc23)CCCN1C(=O)n1ccnc1` (stereo partly drawn) [Compound 187, 4-(4-((1-(1H-imidazole-1-carbonyl)-2-methylpiperidin-3-yl)(methyl)amino)-6-chloro-8-fluoro-2-(((2R,7aS)-2-fluorotetrahydro-1H-pyrrolizin-7a(5H)-yl)methoxy)quinazolin-7-yl)-2-amino-7-fluorobenzo[b]thiophene-3-carbonitrile], the IC50 (KRAS G12D) is reported as less than 0.5 µM, the IC50 (MiaPaca2 cells) is reported as no more than 0.5 µM and the IC50 (KRAS G12V) is reported as less than 0.5 µM. It also gave an IC50 (KRAS WT) of less than 0.5 µM and an IC50 (KRAS G12S) of less than 0.5 µM.
`CN(c1nc(OC[C@@]23CCCN2C[C@H](F)C3)nc2c(F)c(-c3ccc(F)c4sc(N)c(C#N)c34)c(Cl)cc12)C1CN(C(=O)n2ccnc2)CC1F` (mixture of isomers) [Compound 214, 2-amino-4-(6-chloro-8-fluoro-4-((4-fluoro-1-(1H-imidazole-1-carbonyl)pyrrolidin-3-yl)(methyl)amino)-2-(((2R,7aS)-2-fluorotetrahydro-1H-pyrrolizin-7a(5H)-yl)methoxy)quinazolin-7-yl)-7-fluorobenzo[b]thiophene-3-carbonitrile] gave an IC50 (KRAS G12D) of less than 0.5 µM, an IC50 (MiaPaca2 cells) of no more than 0.5 µM and an IC50 (KRAS G12V) of less than 0.5 µM. The IC50 (KRAS WT) was less than 0.5 µM and the IC50 (KRAS G12S) was less than 0.5 µM.
`C[C@@H]1[C@H](N(C)c2nc(OC[C@@]34CCCN3C[C@H](F)C4)nc3c(F)c(-c4ccc(F)c5sc(N)c(C#N)c45)c(Cl)cc23)CCN1C(=O)n1cnc(F)n1` [Compound 112, 2-amino-4-(6-chloro-8-fluoro-4-(((2R,3R)-1-(3-fluoro-1H-1,2,4-triazole-1-carbonyl)-2-methylpyrrolidin-3-yl)(methyl)amino)-2-(((2R,7aS)-2-fluorotetrahydro-1H-pyrrolizin-7a(5H)-yl)methoxy)quinazolin-7-yl)-7-fluorobenzo[b]thiophene-3-carbonitrile] showed an IC50 (KRAS G12D) of less than 0.5 µM, an IC50 (MiaPaca2 cells) of no more than 0.5 µM and an IC50 (KRAS G12V) of less than 0.5 µM. It also gave an IC50 (KRAS WT) of less than 0.5 µM and an IC50 (KRAS G12S) of less than 0.5 µM.
`CCN(c1nc(OC[C@@]23CCCN2C[C@H](F)C3)nc2c(F)c(-c3ccc(F)c4sc(N)c(C#N)c34)c(Cl)cc12)[C@@H]1CCN(C(=O)n2ccc(C#N)n2)[C@@H]1C` [Compound 136, 1-((2R,3R)-3-((7-(2-amino-3-cyano-7-fluorobenzo[b]thiophen-4-yl)-6-chloro-8-fluoro-2-(((2R,7aS)-2-fluorotetrahydro-1H-pyrrolizin-7a(5H)-yl)methoxy)quinazolin-4-yl)(ethyl)amino)-2-methylpyrrolidine-1-carbonyl)-1H-pyrazole-3-carbonitrile] showed an IC50 (KRAS G12D) of less than 0.5 µM, an IC50 (MiaPaca2 cells) of no more than 0.5 µM and an IC50 (KRAS G12V) of less than 0.5 µM. The IC50 (KRAS WT) was less than 0.5 µM and the IC50 (KRAS G12S) was less than 0.5 µM.
`CCN(c1nc(OC[C@@]23CCCN2C[C@H](F)C3)nc2c(F)c(-c3ccc(F)c4sc(N)c(C#N)c34)c(C3CC3)cc12)[C@@H]1CCN(C(=O)n2cnc(C)c2C)[C@@H]1C` [Compound 175, 2-amino-4-(6-cyclopropyl-4-(((2R,3R)-1-(4,5-dimethyl-1H-imidazole-1-carbonyl)-2-methylpyrrolidin-3-yl)(ethyl)amino)-8-fluoro-2-(((2R,7aS)-2-fluorotetrahydro-1H-pyrrolizin-7a(5H)-yl)methoxy)quinazolin-7-yl)-7-fluorobenzo[b]thiophene-3-carbonitrile] showed an IC50 (KRAS G12D) of less than 0.5 µM, an IC50 (MiaPaca2 cells) of no more than 0.5 µM and an IC50 (KRAS G12V) of less than 0.5 µM. The IC50 (KRAS WT) was less than 0.5 µM and the IC50 (KRAS G12S) was less than 0.5 µM.
`CCN(c1nc(OC[C@@]23CCCN2C[C@H](F)C3)nc2c(F)c(-c3ccc(F)c4sc(N)c(C#N)c34)ncc12)[C@@H]1CCN(C(=O)n2cnc(Cl)n2)[C@@H]1C` [Compound 177, 2-amino-4-(4-(((2R,3R)-1-(3-chloro-1H-1,2,4-triazole-1-carbonyl)-2-methylpyrrolidin-3-yl)(ethyl)amino)-8-fluoro-2-(((2R,7aS)-2-fluorotetrahydro-1H-pyrrolizin-7a(5H)-yl)methoxy)pyrido[4,3-d]pyrimidin-7-yl)-7-fluorobenzo[b]thiophene-3-carbonitrile] was tested, and the IC50 (KRAS G12D) was less than 0.5 µM, the IC50 (MiaPaca2 cells) was no more than 0.5 µM and the IC50 (KRAS G12V) was less than 0.5 µM. It also gave an IC50 (KRAS WT) of less than 0.5 µM and an IC50 (KRAS G12S) of less than 0.5 µM.
`Cc1cn(C(=O)N(C)CC2(F)CN(c3nc(OC[C@@]45CCCN4C[C@H](F)C5)nc4c(F)c(-c5ccc(F)c6sc(N)c(C#N)c56)c(Cl)cc34)C2)cn1` [Compound 109, N-((1-(7-(2-amino-3-cyano-7-fluorobenzo[b]thiophen-4-yl)-6-chloro-8-fluoro-2-(((2R,7aS)-2-fluorotetrahydro-1H-pyrrolizin-7a(5H)-yl)methoxy)quinazolin-4-yl)-3-fluoroazetidin-3-yl)methyl)-N,4-dimethyl-1H-imidazole-1-carboxamide] was tested, and the IC50 (KRAS G12D) was less than 0.5 µM, the IC50 (MiaPaca2 cells) was no more than 0.5 µM and the IC50 (KRAS G12V) was less than 0.5 µM. For the same compound, the IC50 (KRAS WT) was less than 0.5 µM and the IC50 (KRAS G12S) was less than 0.5 µM.
In the case of `Cc1cn(C(=O)N2CC(CN(C)c3nc(OC[C@@]45CCCN4C[C@H](F)C5)nc4c(F)c(-c5ccc(F)c6sc(N)c(C#N)c56)c(Cl)cc34)(C(F)F)C2)cn1` [Compound 156, 2-amino-4-(6-chloro-4-(((3-(difluoromethyl)-1-(4-methyl-1H-imidazole-1-carbonyl)azetidin-3-yl)methyl)(methyl)amino)-8-fluoro-2-(((2R,7aS)-2-fluorotetrahydro-1H-pyrrolizin-7a(5H)-yl)methoxy)quinazolin-7-yl)-7-fluorobenzo[b]thiophene-3-carbonitrile], the IC50 (KRAS G12D) is reported as less than 0.5 µM, the IC50 (MiaPaca2 cells) is reported as no more than 0.5 µM and the IC50 (KRAS G12V) is reported as less than 0.5 µM. For the same compound, the IC50 (KRAS WT) was less than 0.5 µM and the IC50 (KRAS G12S) was less than 0.5 µM.
For `Cc1nccn1C(=O)N1CC2(CCN(c3nc(OC[C@@]45CCCN4C[C@H](F)C5)nc4c(F)c(-c5ccc(F)c6sc(N)c(C#N)c56)c(Cl)cc34)C2)C1` [Compound 123, 2-amino-4-(6-chloro-8-fluoro-2-(((2R,7aS)-2-fluorotetrahydro-1H-pyrrolizin-7a(5H)-yl)methoxy)-4-(2-(2-methyl-1H-imidazole-1-carbonyl)-2,6-diazaspiro[3.4]octan-6-yl)quinazolin-7-yl)-7-fluorobenzo[b]thiophene-3-carbonitrile], the IC50 (KRAS G12D) was less than 0.5 µM, the IC50 (MiaPaca2 cells) was no more than 0.5 µM and the IC50 (KRAS G12V) was less than 0.5 µM. It also gave an IC50 (KRAS WT) of less than 0.5 µM and an IC50 (KRAS G12S) of less than 0.5 µM.
